One data set is described as follows: physchem. As to conditions: for solubility: aqueous with cosolvent or surfactant or cyclodextrin. As to the method: Solubilization potential of both micelle compositions for a model drug was measured by HPLC after separation of the unincorporated drug.
Excess drug was removed by centrifugation and the supernatant was analyzed by HPLC. […] HPLC eluent was measured with adsorption at 254 nm.
According to this example, micelle compositions of the invention were further characterized. Particularly, the physiochemical properties of sterically stabilized micelles prepared with DSPE conjugated to molecular weight 2000, 3000, and 5000 PEG were analyzed. The critical micelle concentration (CMC) of phospholipids was determined at pH 7.4 and 25° C. using a water-insoluble fluorescent probe (1,6-diphenyl-1,3,5-hexatriene). Micellar size was determined by quasi-elastic light scattering.
The solvent was then removed by vacuum rotary evaporation under a stream of argon to form a dry film. This dry film was further dried under vacuum overnight to remove any traces of remaining solvent. The dried film was rehydrated with isotonic 0.01M HEPES buffer, pH 7.4. The solution was then flushed with argon, sealed and equilibrated for 12 h at room temperature. The unsolubilized excess paclitaxel was removed by centrifugation at 13,000 g for 5 min to obtain a clear dispersion.
The solubilization potentials of SSMM and SSM for paclitaxel were determined by RP-HPLC. The clear aqueous dispersion was diluted with methanol. 20 μl of each sample was injected at least three times into a μBondapak C-18 column, 3.9 mm×30 cm (Waters, Milford, Mass.) equipped with a C18 column guard. The column was eluted with acetonitrile/water (60:40) at 1.0 ml/min (Waters 600). Detection was by UV absorption measurement at 227 nm (Waters 490). Peak areas were calculated by interfacing the detector to an electronic integrator (Hewlett Packard). The drug concentration was calculated from standard curves.

A further data set concerns anesthetized rats. The experiment in a line: Infusion in anesthetized rats, haemodynamics by radioactive microsphere technique. Type of data set: in vivo, rat. To be noted: 50 ng/kg/min infused for 30 minutes. As to the method:
According to this aspect of the invention, the effect of infusion of enthelin-1 (ET-1) alone or in a SSM formulation on mean arterial pressure (MAP), cardiac output(CO), total peripheral resistance (TPR), and regional blood circulation in anesthetized rats was examined using a radioactive microsphere technique. SSM with or without ET-1 were prepared according to the method described in Example 11 using DSPE-PEG in saline. Treatments for individual groups consisted of: (i) control, SSM at 2.7 mg/ml (n=6); (ii) ET-1 infusion at 50 ng/kg/min (n=5), and (iii) ET-1 at 50 ng/kg/min in SSM (n=8). Drugs were infused at 0.1 ml/min for 30 minutes.

Data set [1] is described as follows: Circular dichroism (CD) spectral analysis of peptide conformation, % helicity. As to conditions: room temperature. Type of data set: physicochemical. The protocol:
According to this example, circular dichroism (CD) experiments were performed to determine the conformation changes of VIP in phospholipid micelles, pH and temperature changes, and in aqueous solutions. CD spectra were recorded on a JASCO J-700 spectropolarimeter using a fused quartz cell of 1 cm pathlength. Spectra in 0.15 N saline (pH 6.8) and 5 mM Hepes buffer (pH 7.4) were measured at a peptide concentration of 4 μM and at a lipid concentration of 1 mM. The effects of CaM, pH (6.8 or 7.4) and temperature (25° C. or 37° C.) on VIP conformation were also studied. The conformation of VIP fragments was likewise studied. All measurements were carried out at room temperature (˜25° C.) unless otherwise noted. A bandwidth of 1.0 nm and a step resolution of 0.5 nm were used to collect an average of 9 accumulations/sample at the […] (200-260 nm wavelength). The peptide spectra shown have the background buffer scans, and empty vesicle scans subtracted and were smoothed using the noise reduction function. The temperature during spectral analysis was maintained by using a circulating water bath attached to a jacket surrounding the fused quartz CD cell. The percent helical characterization of VIP was determined by a method of Haghjoo et al., Peptide Research 9 (6):327-331 (1996): % helicity=[−(θ208+4000)/29 000]*100 and are reported in table 1.
According to the example, CD was used to determine the conformation of VIP in saline, Hepes buffer and phospholipid micelles at room temperature and at 37° C. The CD spectra analysis was performed after 13 μg of human VIP incubated with 1 ml PEG-DSPE (1 μmol) micelles for 30 min at room temperature as determined by preliminary studies. A bandwidth of 1.0 nm and a step resolution of 0.5 nm were used to collect an average of 9 accumulations/sample at near UV range (200-260 nm). The temperature was maintained during spectral analysis by a circulating water bath attached to a jacket surrounding the fused quartz CD cell. The evaluation of VIP molecule conformation in SSM by using circular dichroism was successful because the distortion caused by spherical particles was eliminate due to the small size and univesicular structure of the SSM. […] The phospholipid micelles were ideal in our study of VIP conformation since it provided a hydrophobic core similar to the phospholipid bilayer of the SSL. Moreover, both the negative charge, and the hydrophilic layer provided by the PEG mimic the conditions of our SSL and make it possible to infer the VIP conformational results.
According to this example, the method of example 4 was repeated to determine the conformation of VIP in saline and phospholipid micelles plus calmodulin (CaM). CD spectra measurements were performed after 13 μg/ml of VIP was incubated with 1.0 μmol/ml of phospholipid micelles for 30 min followed by 10^−10 M CaM incubated with VIP in phospholipid micelles for 2 h at 4° C. (conjugation paper). A bandwidth of 1.0 nm and a step resolution of 0.5 nm were used to collect the average of 9 accumulations/sample at near UV range (200-260 nm).
According to this example the method of example 4 was repeated to determine the conformation of VIP fragments in saline and phospholipid micelles. CD spectra measurements were performed after incubation of VIP fragments with phospholipid micelles, at a molar concentration equivalent to VIP (i.e. 9 μg/ml for VIP10-28 fragment and 6 μg/ml for VIP1-12 fragment), for 30 min. A bandwidth of 1.0 nm and a step resolution of 0.5 nm were used to collect the average of 9 accumulations/sample at near UV range (200-260 nm). Specifically, CD spectra of human VIP fragment (1-12) and (10-28) in the presence of phospholipid micelles are shown in FIG. 5. […] These effects correlate well with the % helicity of VIP fragments determined in saline and in the presence of phospholipids (Table 1). […]
(Circular dichroism is widely used to follow secondary structure.)

The subject of data set [2] is second order arterioles of the hamster cheek pouch microcirculation. The experiment in a line: Hamster cheek pouch microcirculation, arteriolar diameter during suffusion. Format: in vivo. To be noted: suffusion of 5 nmol for 7 min. The protocol:
According to this example, the vasorelaxant effects of VIP in a SSM were determined according to the following method. Specifically, adult male golden Syrian hamsters were purchased from Sasco (Omaha, Nebr.). Adult male hamsters with spontaneous hypertension and their normotensive controls were purchased from the Canadian Hybrid Farms (Halls Harbour, NS, Canada). Hypertensive animals have been identified after cross-breeding of hamsters with hereditary cardiomyopathy and normal golden Syrian hamsters. These albino animals have previously been used in our laboratory (Rubinstein et al., Biochem. Biophys. Res. Commun. 183:1117-1123 (1992); Artwohl et al., FASEB J. 10:A629 (1996)). Animals were anesthetized with pentobarbital sodium (6 mg/100 g body weight, i.p.). A tracheotomy was performed to facilitate spontaneous breathing. A femoral vein was cannulated to inject supplemental anesthesia during the experiment (2-4 mg/100 g body weight/h). Body temperature was maintained constant (37-38° C.) and monitored via heating pad and a feed back controller throughout the experiment.
The bioactivity of the VIP in SSM by diffusing it in situ was determined by visualization of the microcirculation of the hamster cheek pouch. The microcirculation of the cheek pouch was visualized locally by a method previously developed in our laboratory (Suzuki et al., Life Sci. 57:1451-1457 (1995); Suzuki et al., Am. J. Physiol. 271:R393-R397 (1996); and Suzuki et al., Am. J. Physiol. 271:H282-H287 (1996)). Briefly, the left cheek pouch was spread over a small plastic baseplate, and an incision was made in the outer skin to expose the cheek pouch membrane. The connective avascular tissue layer was removed, and a plastic chamber was placed over the baseplate and secured in place by suturing the skin around the upper chamber. This forms a triple-layered complex: the baseplate, the exposed cheek pouch membrane, and the upper chamber. After these initial procedures, the hamster is transferred to a heated microscope stage. The chamber was connected to a reservoir containing warmed bicarbonate buffer (37-38° C.) that allowed continuous suffusion of the cheek pouch. The buffer was bubbled continuously with 95% N2-5% CO2 (pH 7.4). […]
The cheek pouch microcirculation was epi-illuminated with a 100-W mercury light source and viewed through a microscope (Nikon, Tokyo, Japan) at a magnification of ×40. […] The inner-wall diameter of second order arterioles ([…]), which modulated vascular resistance in the cheek pouch, (Raud, Acta Physiol. Scand. (Suppl.) 578:1-58 (1989); Suzuki et al., Life Sci. 57:1451-1457 (1995); Suzuki et al., Am. J. Physiol. 271:R393-R397 (1996)) was measured from the video display of the microscope image using a videomicrometer (VIA 100; Boeckeler Instruments, Tucson, Ariz.). […]

Converted amounts (≈) assume the structure as drawn. No end group written: not given here.

`CC(=O)[C@H]1CC[C@H]2[C@@H]3CCC4=CC(=O)CC[C@]4(C)[C@H]3CC[C@]12C` [progesterone]: the solubility in “physchem” (thermodynamic from solid, solubility in 10 mg/ml DSPE-PEG) was at most 198 µg/mL; in “physchem” (thermodynamic from solid, solubility of progesterone in DSPE-PEG micelles) it was 198 ± 7 µg/mL (≈ 630 µM); in “physchem” (thermodynamic from solid, solubility of progesterone in bile salt micelles), 21 µg/mL.
Consider “enthelin-1 (CSCSSLMDKECVYFCHLDIIW; ends and bridges not checked; cysteine pairing not given here; UniProt P05305 53-73, looked up) [ET-1]”, for which, in the data set with anesthetized rats, the Renal vascular resistance was 76%, the “increase in TPR” value was found to be 102% and the “vascular resistance in brain” value is listed as 62%.
As for `NC(=O)CC[C@@H]1NC(=O)[C@H](Cc2ccccc2)NC(=O)[C@H](Cc2ccc(O)cc2)NC(=O)[C@@H](N)CSSC[C@@H](C(=O)N2CCC[C@H]2C(=O)N[C@@H](CCCN=C(N)N)C(=O)NCC(N)=O)NC(=O)[C@H](CC(N)=O)NC1=O` [Vasopressin], in data set [1], the “Conformation from CD spectrum in the presence of phospholipid micelles (SSM)” value (“Conformation from CD spectrum … (SSM)” below) is recorded as “primarily random coil conformation”, the “% Helicity (in the presence of) Phospholipids” value was determined as 16%, the “% Helicity (in the presence of) Saline” value came to 8% and the “Conformation from CD spectrum in saline” value is “primarily random coil conformation”.
Consider “VIP1-12: VIP fragment 1-12 (HSDAVFTDNYTR; Vasoactive intestinal peptide; UniProt P01282 125-136, looked up, fragment)”, for which, in data set [1], the “Conformation from CD spectrum … (SSM)” value was “primarily random coil structure”, the “% Helicity (in the presence of) Phospholipids” value was 0.05%, the “% Helicity (in the presence of) Saline” value turned out to be 0% and the “Conformation from CD spectrum in saline” value is recorded as “primarily random coil structure”.
For calmodulin [CaM], in data set [1], the “% Helicity (in the presence of) Phospholipids” value is given as 0% and the “% Helicity (in the presence of) Saline” value is 0%.
`C=C(C)[C@@H]1CC[C@]2(C(=O)O)CC[C@]3(C)[C@H](CC[C@@H]4[C@@]5(C)CC[C@H](O)C(C)(C)[C@@H]5CC[C@]43C)[C@@H]12` [betullinic acid]: the “solubility in 10 mg/ml DSPE-PEG” value in “physchem” is listed as “up to 200 μg/ml”.
secretin: the “increase in arteriolar diameter from baseline” value in data set [2] is 10.3±0.6%. In addition, in data set [1], the “Conformation from CD spectrum … (SSM)” value is given as “appreciable α-helix conformation” and the “Conformation from CD spectrum in saline” value is reported as “unordered”.
Compound `C=C(C)[C@@H]1CC[C@]2(C(=O)O)CC[C@]3(C)[C@H](CC[C@@H]4[C@@]5(C)CC[C@H](O)C(C)(C)[C@@H]5CC[C@]43C)[C@@H]12` [betulinic acid] returned a solubility in the data set “physchem” (solubility in either SSM or SSC) of 250 µg/mL (≈ 547 µM).

In general, solubility refers to the dissolved amount per volume that the medium holds.

The values are drawn from US20110142884A1, “Materials and Methods for Making Improved Micelle Compositions” (The Board of Trustees of the University of Illinois, priority 2002, published 2011).
